In patent US6893650B1, “N2-phenylamidine derivatives” (Bayer Cropscience GmbH, priority 1999, dated 2005):

These molecules were tested on Leptosphaeria nodorum (assay: glume blotch, spray or stem-base drench of test plants, infection visually estimated). Conditions: concentration of 500 ppm (w/v) or less.
Format: in vivo
Further: key: 1 is little or no control; 2 is moderate control; 3 is good to total control.

Question: `Cc1cc(Oc2cccc(Cl)c2)c(C)cc1N=CN(C)C` [Compound 7] was tested. Which “score of 1 to 3 (control, degree of infection visually estimated)” value (shortened to “score”) did it give?
Answer: 2

Question: With `CCN(C)C=Nc1cc(C)c(Oc2cccc(OC)c2)cc1C` [Compound 312] as the molecule, how does the “score” value read?
Answer: 2

Question: How did the “score” value turn out when `Cc1cc(Oc2cccc(C(F)(F)F)c2)c(C)cc1N=CN1CCOCC1` [Compound 35] was run?
Answer: 2

Question: With `Cc1cc(OC(=O)c2sc3ccccc3c2Cl)c(C)cc1N=CN(C)C` [Compound 160] as the molecule, how does the “score” value read?
Answer: 2

Question: Which “score” value does the source give for `Cc1cc(Oc2ccc(OC(C)C)cc2)c(C)cc1N=CN(C)C` [Compound 303] here?
Answer: 2

Question: `Cc1cc(OCc2ccc(OCC3CCCCC3)cc2)c(C)cc1N=CN(C)C` [Compound 290] was tested. Which “score” value did it give?
Answer: 2

Question: For `CCN(C)C=Nc1cc(C)c(Oc2cccc(Cl)c2)cc1C` [Compound 310], which “score” value is on record?
Answer: 2

Question: Which “score” value does the source give for `CCN(C=Nc1cc(C)c(Oc2cccc(C(F)(F)F)c2)cc1C)CC` [Compound 37, N,N-Diethyl-N′-[4-(3-trifluoromethylphenoxy)-2,5-xylyl]formamidine] here?
Answer: 2

Question: For `Cc1cc(Oc2cccc(C(F)(F)F)c2)c(C)cc1N=CN(C)C` [Compound 1], which “score” value is on record?
Answer: 2

Question: Which “score” value does the source give for `Cc1cc(Oc2cccc(C#N)c2)c(C)cc1N=CN(C)C` [Compound 29] here?
Answer: 2

Question: Which “score” value does the source give for `CCN(C)C=Nc1cc(C)c(Oc2cccc(Oc3ccccc3)c2)cc1C` [Compound 325] here?
Answer: 2

Question: With `CCN(C)C=Nc1cc(C)c(Oc2cccc(C(C)(C)C)c2)cc1C` [Compound 100] as the molecule, how does the “score” value read?
Answer: 2

Question: `Cc1cc(Oc2nc(Br)ns2)c(C)cc1N=CN(C)C` [Compound 72] was tested. Which “score” value did it give?
Answer: 2

Question: Which “score” value does the source give for `CCC(C)c1ccc(Oc2cc(C)c(N=CN(C)C)cc2C)cc1` (stereo not drawn) [Compound 130] here?
Answer: 2

Question: For `Cc1cc(Oc2cccc(C3CCCC3)c2)c(C)cc1N=CN(C)C` [Compound 378], which “score” value is on record?
Answer: 2

Question: For `COc1cccc(Oc2cc(C)c(N=CN(C)C)cc2C)c1` [Compound 56], which “score” value is on record?
Answer: 2

Question: With `Cc1cc(C)nc(Oc2cccc(Oc3cc(C)c(N=CN(C)C)cc3C)c2)n1` [Compound 369] as the molecule, how does the “score” value read?
Answer: 2

Question: With `Cc1cc(Oc2nc(-c3ccccc3)ns2)c(C)cc1N=CN(C)C` [Compound 48, N,N-Dimethyl-N′-[4-(3-phenyl-1,2,4-thiadiazol-5-yloxy)-2,5-xylyl]formamidine] as the molecule, how does the “score” value read?
Answer: 2

Question: For `Cc1cc(Oc2nc(-c3ccccc3)ns2)c(C(C)C)cc1N=CN(C)C` [Compound 208], which “score” value is on record?
Answer: 2

Question: For `CCN(C)C=Nc1cc(C)c(Oc2cccc(C(F)(F)F)c2)cc1C` [Compound 45, N-Ethyl-N-methyl-N′-[4-(3-trifluoromethylphenoxy)-2,5-xylyl]formamidine], which “score” value is on record?
Answer: 2

Question: For `COC(C)(C)c1cccc(Oc2cc(C)c(N=CN(C)C)cc2C)c1` [Compound 392], which “score” value is on record?
Answer: 2

Question: With `Cc1cc(Oc2cccc(C(C)(C)C)c2)c(C)cc1N=CN(C)C(C)C` [Compound 283] as the molecule, how does the “score” value read?
Answer: 2

Question: With `Cc1cc(Oc2cccc(C(F)(F)F)c2)c(C)cc1N=CN1CCCC1` [Compound 41] as the molecule, how does the “score” value read?
Answer: 2

Question: With `COc1ccccc1Oc1cc(C)c(N=CN(C)C)cc1C` [Compound 27] as the molecule, how does the “score” value read?
Answer: 2

Question: Which “score” value does the source give for `COc1cc(N=CN(C)C)c(Br)cc1Oc1cccc(C(F)(F)F)c1` [Compound 15] here?
Answer: 2

Question: Which “score” value does the source give for `C#CCOc1ccc(Oc2cc(C)c(N=CN(C)C)cc2C)cc1` [Compound 235] here?
Answer: 2

Question: `Cc1cc(Oc2nc(-c3ccc(Cl)c(Cl)c3)cs2)c(C)cc1N=CN(C)C` [Compound 351] was tested. Which “score” value did it give?
Answer: 2

Question: `CC(=Nc1cc(C)c(Oc2cccc(C(F)(F)F)c2)cc1C)N(C)C` [Compound 2] was tested. Which “score” value did it give?
Answer: 2

Question: With `CCN(C)C=Nc1cc(C)c(Oc2ccc(C(C)C)cc2)cc1C` [Compound 311] as the molecule, how does the “score” value read?
Answer: 2

Question: How did the “score” value turn out when `C=CCN(C)C=Nc1cc(C)c(Oc2cccc(C(C)(C)C)c2)cc1C` [Compound 284] was run?
Answer: 2

Question: With `Cc1cc(Oc2cccc(C(F)(F)F)c2)c(C)cc1N=CN1CCCCC1` [Compound 43] as the molecule, how does the “score” value read?
Answer: 2

Question: Which “score” value does the source give for `Cc1cc(Oc2nc3cc(C(F)(F)F)ccc3s2)c(C)cc1N=CN(C)C` [Compound 194] here?
Answer: 2

Question: Which “score” value does the source give for `Cc1cc(C(C#N)c2cccc(C(F)(F)F)c2)c(C)cc1N=CN(C)C` (stereo not drawn) [Compound 214] here?
Answer: 2

Question: For `CCc1ccc(Oc2cc(C)c(N=CN(C)C)cc2C)cc1` [Compound 181], which “score” value is on record?
Answer: 2

Question: Which “score” value does the source give for `CCN(C)C=Nc1cc(C)c(Oc2ccc(C(C)(C)C)cc2)cc1C` [Compound 326] here?
Answer: 2

Question: With `CCNC=Nc1cc(C)c(Oc2cccc(C(F)(F)F)c2)cc1C` [Compound 59] as the molecule, how does the “score” value read?
Answer: 2

Question: For `Cc1cc(Oc2cccc(C(C)(C)C)c2)c(C)cc1N=CN(C)C` [Compound 8], which “score” value is on record?
Answer: 2

Question: With `CCC(C)(C)c1ccc(Oc2cc(C)c(N=CN(C)C)cc2C)cc1` [Compound 170] as the molecule, how does the “score” value read?
Answer: 2

Question: With `CC(=Nc1cc(C)c(SCc2cccc(C(F)(F)F)c2)cc1C)N(C)C` [Compound 5] as the molecule, how does the “score” value read?
Answer: 2

Question: For `Cc1cc(Oc2ccc(C(C)(C)C)cc2)c(C)cc1N=CN(C)C` [Compound 61], which “score” value is on record?
Answer: 2

Question: For `CCN(C)C=Nc1cc(C)c(Oc2ccc(Cl)c(C(F)(F)F)c2)cc1C` [Compound 364], which “score” value is on record?
Answer: 2

Question: For `Cc1cc(Oc2nc(-c3ccccc3)ns2)c(C)cc1N=CN1CCCCC1` [Compound 246], which “score” value is on record?
Answer: 2
